In patent US7034020B2, “Derivatives of butyric acid and uses thereof” (The University of Arkansas for Medical Science, priority 1999, dated 2006):
Values joined by “and” are separate entries in the source; they are usually repeats but may differ in a detail not shown here. Identical values can stand only once. Like-named read-outs stand apart in the source and are kept apart here.

Columns and labels:
[1] = humans; perfused at doses as high as 2 g/kg/day (Perrine et al., 1994); cited from earlier work
[2] = test system: total anti-ovalbumin antibody in the serum; test: Primary anti-ovalbumin antibody production in vivo (ELISA), derivatives on Days 1–3; parameters: species or system C57BL/10 mice; conditions: 0.091 mmol ip Days 1–3; serum day 10; versus saline
Protocol: C57BL/10 mice are injected ip on Day 0 with ovalbumin followed by ip injections of saline, or one of three different butyrate derivatives on Days 1–3.
The butyrate derivatives are tested for their ability to suppress lymphocyte activity in vivo. C57BL/10 mice (5 mice/group) are injected ip with 100 μg of ovalbumin in conjunction with complete Freund's adjuvant on Day 0. In one experiment, the mice also receive one ip injection per day of the butyrate derivatives (0.091 mmol) on Days 1–3. Serum samples are obtained 10 days after the initial injection with ovalbumin, and tested for the presence of anti-ovalbumin antibodies using an ELISA. To perform the ELISA 96 well plates (Costar 3595) are first incubated with ovalbumin (100 μl/well of 100 μg/ml in PBS) overnight at 4° C. The plates are then washed 4 times with PBS and 0.5% Tween 20, blocked with 1% fetal calf serum for 30 minutes at 37° C., and washed again. Individual serum samples are added (diluted 1/100 or 1/1000 in PBS), and the plates are incubated for 2 hours at 20° C. The plates were next washed 7 times with PBS/Tween, and alkaline phosphate (AP)-labeled goat anti-mouse IgG, IgA, IgM (H+L) (Zymed) is added ( 1/1000) for 1 hour at 20° C. The plates are again washed 7 times with PBS/Tween, alkaline phosphate substrate (1 mg/ml) is added. After 10 minutes, Ig levels are quantified by an ELISA reader (absorbance 405 nm). The concentration of anti-ovalbumin is determined by comparison with a standard curve obtained using mouse anti-ovalbumin antibody (Sigma; St. Louis, Mo.). To measure isotype-specific anti-ovalbumin antibodies, serum samples (diluted at 1/300 or 1/1000) are incubated on the ovalbumin-coated plates as described above. […] Ig levels are presented as OD measurements.

[3] = test system: KLH-specific Th1 cells (clone D3); test: IL-2-induced proliferation of Th1 cells in the presence of butyrate derivatives; type: cell-based, C57BL/10 mice; conditions: for Suppression of IL-2-induced proliferation of Th1 cells: 10% Con A CM, various concentrations, proliferation after 2 days
Protocol: KLH-specific Th1 cells (clone D3) are stimulated with IL-2 (10% Con A CM) in the presence of different concentrations of n-butyrate or butyrate derivatives. In FIG. 2A Th1 cell proliferation is measured after 2 days. In FIG. 2B, the inhibitors are washed out after 24 hours, and the Th1 cells reincubated with fresh IL-2-containing medium. Proliferation of the Th1 cells restimulated with IL-2 in the absence of the inhibitors is measured after an additional 2 days. This experiment was repeated three times, and the proliferation data represents the means of the […] experiments.
The KLH-specific were developed in C57BL/10 mice, and characterized as Th1 clones based on their ability to secrete IL-2, but not IL-4. The Th1 clones were passed every 7–14 days using KLH, irradiated syngeneic spleen cells as antigen-presenting cells (APC), and IL-2-containing Con A CM using a previously described protocol (Gilbert et al., 1990).
To test the ability of the butyrate derivatives to suppress T cell activity […], Th1 cells [(5×10^4 cells/well in 96 well plates (Costar)] are stimulated with 10% IL-2-containing Con A CM in the presence of various concentrations of different butyrate derivatives. In some cultures, Th1 cell proliferation is measured after two days. In other cultures, the Th1 cells are washed after 24 hours, and fresh IL-2-containing medium is added. Proliferation is measured in the washed, IL-2-restimulated cultures after an additional 2 days.

[4] = test system: Anti-HGG antibody in serum; test: Primary anti-HGG antibody response in mice treated with n-butyrate; type: in vivo; parameters: Anti-HGG antibody in serum of individual mice: unit not given here; conditions: for Anti-HGG antibody in serum, group mean (x) / Anti-HGG antibody in serum of individual mice: ELISA day 9; for Anti-HGG antibody in serum, group mean (x): mean of 5 mice; for Anti-HGG antibody in serum of individual mice: HGG 100 μg ip day 0
Excerpt: Prior to testing the suppressive effects of butyrate prodrugs in vivo, the ability of n-butyrate to inhibit a primary antibody response in mice was examined.

[5] = Daniel et al., 1989, cited from earlier work
[6] = Experiment 1, 5.5 mg n-butyrate ip days 2–5
[7] = Experiment 2, 5.5 mg n-butyrate ip days 2–6

CCCC(=O)O.CCCC(=O)O.CCCC(=O)O.CCCC(=O)O.N=C(N)NCCC[C@H](N)C(=O)O.N=C(N)NCCC[C@H](N)C(=O)O.N=C(N)NCCC[C@H](N)C(=O)O [arginine salt of butyrate]
Toxicity [1]: nontoxic

CCCC(=O)NCCN1CCOCC1.Cl [MEBA, 2-(4-Morpholinyl)ethyl butanamide hydrochloride]
Effect on primary antigen-specific antibody production in vivo [2]: unable to suppress
Suppression of IL-2-induced proliferation of Th1 cells [3]: does not suppress

CCCC(=O)OCCN1CCN(C(=O)CCC)CC1.Cl [BEB, 2-(4-Butanoylpiperazinyl)ethyl butanoate hydrochloride]
Effect on primary antigen-specific antibody production in vivo [2]: significantly less antigen-specific antibody than control mice
Suppression of IL-2-induced proliferation of Th1 cells [3]: comparable to n-butyrate
Proliferation to IL-2 after compounds are washed out ([3]; washed after 24 hours, fresh IL-2 medium, additional 2 days): regained their ability to proliferate to IL-2

CCCC(=O)O [n-butyrate]
Anti-HGG antibody in serum, group mean (x) [4, 6]: x = 86 ± 72
Anti-HGG antibody in serum of individual mice [4, 6]: 202 and 91 and 29 and 83 and 24
Anti-HGG antibody in serum, group mean (x) [4, 7]: x = 12 ± 11
Anti-HGG antibody in serum of individual mice [4, 7]: 12 and 6 and 4 and 9 and 31
Suppression of primary antibody response ([4]; mice, n-butyrate ip, versus control): 40–50%
half-life in vivo [5]: six
half-life in vivo ([5]; listed as n-buytyrate): 3 to 6 min
